What was measured:
[1] = biological target: T1, S-adenosylhomocysteine hydrolase (AHCY) (Homo sapiens, UniProt P23526); experiment: steady-state inhibition kinetics on purified recombinant AHCY, ADA-coupled, LC-MS quantification of inosine; format: biochemical
T1 construct: human full-length AHCY, N-terminal 6xHis tag

[2] = biological target: T1, S-adenosylhomocysteine hydrolase (AHCY); experiment: enzymatic turnover of SAH by purified recombinant AHCY, LC-MS quantification of adenosine; format: biochemical

T1 sequence (P23526 whole entry): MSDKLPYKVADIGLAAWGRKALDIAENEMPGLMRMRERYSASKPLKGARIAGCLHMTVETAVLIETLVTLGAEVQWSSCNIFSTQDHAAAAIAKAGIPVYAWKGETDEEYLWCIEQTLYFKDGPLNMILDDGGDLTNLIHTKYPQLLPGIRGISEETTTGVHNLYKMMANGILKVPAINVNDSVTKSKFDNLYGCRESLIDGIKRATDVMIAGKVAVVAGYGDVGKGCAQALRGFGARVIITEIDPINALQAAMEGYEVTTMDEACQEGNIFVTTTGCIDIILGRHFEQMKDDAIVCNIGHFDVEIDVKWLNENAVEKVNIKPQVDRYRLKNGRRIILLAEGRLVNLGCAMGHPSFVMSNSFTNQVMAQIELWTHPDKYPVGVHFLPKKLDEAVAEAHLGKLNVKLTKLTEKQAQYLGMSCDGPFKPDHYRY

| Ki [1] [µM] | Compound | enzymatic turnover of SAH by purified recombinant AHCY, LC-MS quantification of [2] |
| --- | --- | --- |
| 36.5 | C[N+](C)(C)[O-] [TMAO] | – |
| – | Nc1ncnc2c1ncn2[C@@H]1O[C@H](CSCC[C@H](N)C(=O)O)[C@@H](O)[C@H]1O [SAH] | purified AHCY revealed that SAH is converted to adenosine in an enzyme dependent fashion |

— paper PMC12390942, “Gut microbiota–derived metabolite trimethylamine N-oxide alters the host epigenome through inhibition of S-adenosylhomocysteine hydrolase” (The Journal of Biological Chemistry, 2025)
